Source: paper PMC8645336, “Benchmarking a highly selective USP30 inhibitor for enhancement of mitophagy and pexophagy” (Life Science Alliance, 2021)

What was measured:
Test in all cases: biochemical
Design in all cases: Ubiquigent DUB profiler selectivity panel, remaining enzyme activity as % of control
Conditions in all cases: read-out: % of control remaining
USP12/UAF1/WDR20 = USP12/UAF1/WDR20 (Homo sapiens, UniProt O75317)
Protocol: (§1) Previous work has reported IC50 values for a series of benzosulphonamide inhibitors, of which all those <1 μM were screened for selectivity, in comparison to three other USP family members ([20], [21]). We have selected one of these compounds (CMPD-39, Fig 1A) for a more rigorous test of selectivity provided by the Ubiquigent DUB profiler screening platform comprising >40 DUBs. […] To test engagement of the inhibitor with USP30 applied to intact cells, we assayed competition with Ub-PA (Ub-propargylamide). Ub-PA covalently binds to the USP30 active site leading to a characteristic upshift on a SDS–PAGE gel ([22]). If a drug blocks access to the catalytic site, then the probe modification is blocked and the apparent molecular weight of USP30 shifts down accordingly. […] A robust proxy read-out for target engagement is the enhancement of TOMM20 ubiquitylation after mitochondrial depolarization ([6], [16]). This second assay indicates a maximal effect with 200 nM CMPD-39 applied to RPE1-YFP-PRKN cells (Fig 1D).  Figure 1. CMPD-39 is a selective USP30 inhibitor. (A) Chemical structure of CMPD-39. (B) DUB specificity screen (DUB profiler, Ubiquigent) with 1-100 μM CMPD-39. […] Samples were incubated with CMPD-39 for 2 h at the indicated concentrations, then incubated with HA-Ub-PA probe for 10 min at 37°C and immunoblotted as shown. Red arrow indicates unbound USP30; blue arrow represents probe bound USP30. (D) Inhibition of USP30 enhances the ubiquitylation of TOMM20 in YFP-PRKN over-expressing hTERT-RPE1 cells in a concentration dependent manner in response to mitophagy induction. Cells were treated for 1 h with DMSO or antimycin A and oligomycin A (AO; 1 μM each) in the absence or presence of CMPD-39 at the indicated concentrations, lysed, and analyzed by Western blotting. Black arrow indicates unmodified TOMM20, ubiquitylated species are indicated by red (mono-ubiquitylated) or blue arrow heads. […] Source data are available for this figure.

USP9x = USP9x (Homo sapiens, UniProt Q93008)
USP9x, sequence (Q93008 whole entry): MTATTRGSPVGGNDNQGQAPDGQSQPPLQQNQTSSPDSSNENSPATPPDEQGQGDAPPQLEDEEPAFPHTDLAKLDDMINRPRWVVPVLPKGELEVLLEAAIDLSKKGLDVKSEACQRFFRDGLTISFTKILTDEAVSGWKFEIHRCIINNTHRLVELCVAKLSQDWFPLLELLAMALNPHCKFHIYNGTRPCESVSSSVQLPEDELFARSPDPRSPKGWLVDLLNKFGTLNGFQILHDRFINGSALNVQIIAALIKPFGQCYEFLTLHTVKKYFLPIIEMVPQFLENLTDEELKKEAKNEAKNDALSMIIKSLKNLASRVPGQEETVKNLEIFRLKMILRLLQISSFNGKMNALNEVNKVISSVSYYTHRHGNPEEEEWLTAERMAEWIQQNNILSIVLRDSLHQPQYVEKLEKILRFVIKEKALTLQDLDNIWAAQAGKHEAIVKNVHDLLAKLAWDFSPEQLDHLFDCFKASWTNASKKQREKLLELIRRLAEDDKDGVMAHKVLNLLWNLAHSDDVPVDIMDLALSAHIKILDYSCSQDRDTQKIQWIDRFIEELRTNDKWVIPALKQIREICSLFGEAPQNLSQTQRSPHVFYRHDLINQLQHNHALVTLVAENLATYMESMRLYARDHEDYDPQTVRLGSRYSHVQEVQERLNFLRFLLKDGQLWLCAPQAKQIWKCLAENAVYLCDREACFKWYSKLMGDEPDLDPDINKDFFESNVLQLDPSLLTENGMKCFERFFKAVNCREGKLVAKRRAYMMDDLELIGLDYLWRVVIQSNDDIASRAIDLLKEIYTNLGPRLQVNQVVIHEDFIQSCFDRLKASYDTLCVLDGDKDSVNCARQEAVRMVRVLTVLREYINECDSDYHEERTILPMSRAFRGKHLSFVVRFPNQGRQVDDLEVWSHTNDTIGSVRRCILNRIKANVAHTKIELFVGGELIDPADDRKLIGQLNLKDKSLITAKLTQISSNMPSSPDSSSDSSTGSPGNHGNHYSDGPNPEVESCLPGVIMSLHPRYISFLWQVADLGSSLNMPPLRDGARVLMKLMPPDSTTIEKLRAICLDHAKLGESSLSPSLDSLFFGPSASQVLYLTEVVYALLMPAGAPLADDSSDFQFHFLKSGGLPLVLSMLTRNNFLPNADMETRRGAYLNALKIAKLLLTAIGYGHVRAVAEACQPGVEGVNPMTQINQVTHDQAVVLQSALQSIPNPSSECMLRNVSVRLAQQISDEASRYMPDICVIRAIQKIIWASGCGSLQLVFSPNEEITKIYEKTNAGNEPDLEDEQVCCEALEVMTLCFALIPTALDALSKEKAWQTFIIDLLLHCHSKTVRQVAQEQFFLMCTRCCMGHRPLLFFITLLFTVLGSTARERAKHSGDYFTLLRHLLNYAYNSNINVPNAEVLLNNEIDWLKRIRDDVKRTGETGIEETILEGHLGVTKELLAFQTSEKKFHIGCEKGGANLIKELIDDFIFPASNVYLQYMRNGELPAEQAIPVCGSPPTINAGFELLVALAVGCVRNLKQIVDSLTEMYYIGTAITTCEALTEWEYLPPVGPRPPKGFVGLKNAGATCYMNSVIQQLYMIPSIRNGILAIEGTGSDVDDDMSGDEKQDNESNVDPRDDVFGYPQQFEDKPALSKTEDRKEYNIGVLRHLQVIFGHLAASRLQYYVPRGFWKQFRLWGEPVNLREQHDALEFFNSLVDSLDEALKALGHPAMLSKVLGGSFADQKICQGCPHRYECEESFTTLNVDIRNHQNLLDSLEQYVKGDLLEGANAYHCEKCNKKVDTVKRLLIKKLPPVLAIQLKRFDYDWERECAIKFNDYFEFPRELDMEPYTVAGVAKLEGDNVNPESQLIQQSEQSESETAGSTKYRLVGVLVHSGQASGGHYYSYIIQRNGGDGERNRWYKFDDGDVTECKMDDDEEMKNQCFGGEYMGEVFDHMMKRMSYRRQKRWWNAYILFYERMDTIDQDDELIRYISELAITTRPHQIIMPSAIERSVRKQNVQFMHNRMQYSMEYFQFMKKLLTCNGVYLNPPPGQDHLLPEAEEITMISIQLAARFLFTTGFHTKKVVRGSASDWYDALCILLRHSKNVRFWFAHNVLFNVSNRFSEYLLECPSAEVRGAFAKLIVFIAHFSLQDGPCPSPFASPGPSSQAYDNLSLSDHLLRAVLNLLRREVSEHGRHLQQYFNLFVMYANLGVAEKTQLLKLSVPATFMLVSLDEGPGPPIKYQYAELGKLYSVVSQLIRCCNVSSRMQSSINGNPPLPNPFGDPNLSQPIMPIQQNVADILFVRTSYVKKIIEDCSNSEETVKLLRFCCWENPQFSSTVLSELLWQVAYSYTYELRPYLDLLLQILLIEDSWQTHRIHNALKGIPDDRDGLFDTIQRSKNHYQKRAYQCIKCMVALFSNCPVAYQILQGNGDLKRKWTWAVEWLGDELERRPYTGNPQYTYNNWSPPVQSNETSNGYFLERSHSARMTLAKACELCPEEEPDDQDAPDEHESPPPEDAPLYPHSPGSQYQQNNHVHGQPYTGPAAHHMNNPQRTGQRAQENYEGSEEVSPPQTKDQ
Protocol: as §1

BAP1 = molecular target: T1, BAP1 (Homo sapiens, UniProt Q92560)
T1 sequence (Q92560 1-729): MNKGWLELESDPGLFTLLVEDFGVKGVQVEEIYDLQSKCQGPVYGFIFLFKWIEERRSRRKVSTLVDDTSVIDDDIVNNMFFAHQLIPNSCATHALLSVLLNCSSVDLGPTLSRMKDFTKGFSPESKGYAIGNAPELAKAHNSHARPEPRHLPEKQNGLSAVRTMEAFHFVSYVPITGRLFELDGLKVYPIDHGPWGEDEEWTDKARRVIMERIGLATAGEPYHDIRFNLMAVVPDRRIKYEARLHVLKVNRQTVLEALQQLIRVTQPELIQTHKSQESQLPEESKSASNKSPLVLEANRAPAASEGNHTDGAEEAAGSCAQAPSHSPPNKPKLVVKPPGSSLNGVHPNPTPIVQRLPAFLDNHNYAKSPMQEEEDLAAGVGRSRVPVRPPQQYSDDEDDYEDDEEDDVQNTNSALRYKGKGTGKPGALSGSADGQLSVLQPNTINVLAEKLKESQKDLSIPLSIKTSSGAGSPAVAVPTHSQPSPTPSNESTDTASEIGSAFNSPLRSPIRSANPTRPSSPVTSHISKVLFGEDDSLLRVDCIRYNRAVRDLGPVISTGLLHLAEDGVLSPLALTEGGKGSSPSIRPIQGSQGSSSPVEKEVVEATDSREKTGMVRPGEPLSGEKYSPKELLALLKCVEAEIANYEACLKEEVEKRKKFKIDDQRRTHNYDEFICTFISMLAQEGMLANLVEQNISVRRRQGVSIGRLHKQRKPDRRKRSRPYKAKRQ
Protocol: as §1

USP25 = molecular target: T2, USP25 (Homo sapiens, UniProt Q9UHP3)
T2 sequence (Q9UHP3 1-1055): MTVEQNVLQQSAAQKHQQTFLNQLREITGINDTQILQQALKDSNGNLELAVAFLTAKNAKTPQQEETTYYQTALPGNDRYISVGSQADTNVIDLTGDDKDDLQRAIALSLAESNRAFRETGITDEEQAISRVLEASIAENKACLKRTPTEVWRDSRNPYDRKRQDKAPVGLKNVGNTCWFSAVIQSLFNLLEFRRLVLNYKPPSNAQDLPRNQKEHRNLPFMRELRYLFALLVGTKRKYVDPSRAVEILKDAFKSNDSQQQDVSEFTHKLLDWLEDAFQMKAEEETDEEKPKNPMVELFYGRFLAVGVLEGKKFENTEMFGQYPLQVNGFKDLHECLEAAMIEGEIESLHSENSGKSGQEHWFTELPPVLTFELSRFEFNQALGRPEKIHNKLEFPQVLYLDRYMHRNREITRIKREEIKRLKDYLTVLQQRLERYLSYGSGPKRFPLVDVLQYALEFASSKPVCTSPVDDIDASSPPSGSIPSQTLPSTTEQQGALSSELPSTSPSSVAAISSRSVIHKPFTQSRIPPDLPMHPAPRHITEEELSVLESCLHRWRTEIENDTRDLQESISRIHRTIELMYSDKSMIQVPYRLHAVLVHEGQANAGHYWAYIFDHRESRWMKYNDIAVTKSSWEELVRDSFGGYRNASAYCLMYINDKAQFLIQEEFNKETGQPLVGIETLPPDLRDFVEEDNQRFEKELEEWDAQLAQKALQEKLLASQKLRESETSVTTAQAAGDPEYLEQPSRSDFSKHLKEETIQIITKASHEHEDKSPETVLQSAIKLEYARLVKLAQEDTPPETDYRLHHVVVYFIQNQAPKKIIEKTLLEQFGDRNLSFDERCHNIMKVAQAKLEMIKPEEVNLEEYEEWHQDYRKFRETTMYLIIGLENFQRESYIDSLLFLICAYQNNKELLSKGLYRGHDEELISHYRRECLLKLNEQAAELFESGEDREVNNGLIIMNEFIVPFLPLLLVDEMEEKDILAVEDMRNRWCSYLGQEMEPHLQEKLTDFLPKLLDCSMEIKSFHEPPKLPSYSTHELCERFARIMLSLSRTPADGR
Protocol: as §1

USP12/UAF1/WDR20, sequence (O75317 whole entry): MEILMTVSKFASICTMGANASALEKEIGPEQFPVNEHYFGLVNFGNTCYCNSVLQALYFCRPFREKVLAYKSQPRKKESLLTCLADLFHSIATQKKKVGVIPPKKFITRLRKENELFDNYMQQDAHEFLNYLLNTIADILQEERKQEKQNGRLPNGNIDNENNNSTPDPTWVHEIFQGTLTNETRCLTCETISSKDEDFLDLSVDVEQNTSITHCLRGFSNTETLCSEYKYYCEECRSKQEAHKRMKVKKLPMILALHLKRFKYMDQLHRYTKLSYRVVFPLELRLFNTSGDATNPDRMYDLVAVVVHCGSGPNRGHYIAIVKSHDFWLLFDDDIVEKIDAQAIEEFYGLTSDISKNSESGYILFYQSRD
USP12/UAF1/WDR20, sequence (Q8TAF3 whole entry partner): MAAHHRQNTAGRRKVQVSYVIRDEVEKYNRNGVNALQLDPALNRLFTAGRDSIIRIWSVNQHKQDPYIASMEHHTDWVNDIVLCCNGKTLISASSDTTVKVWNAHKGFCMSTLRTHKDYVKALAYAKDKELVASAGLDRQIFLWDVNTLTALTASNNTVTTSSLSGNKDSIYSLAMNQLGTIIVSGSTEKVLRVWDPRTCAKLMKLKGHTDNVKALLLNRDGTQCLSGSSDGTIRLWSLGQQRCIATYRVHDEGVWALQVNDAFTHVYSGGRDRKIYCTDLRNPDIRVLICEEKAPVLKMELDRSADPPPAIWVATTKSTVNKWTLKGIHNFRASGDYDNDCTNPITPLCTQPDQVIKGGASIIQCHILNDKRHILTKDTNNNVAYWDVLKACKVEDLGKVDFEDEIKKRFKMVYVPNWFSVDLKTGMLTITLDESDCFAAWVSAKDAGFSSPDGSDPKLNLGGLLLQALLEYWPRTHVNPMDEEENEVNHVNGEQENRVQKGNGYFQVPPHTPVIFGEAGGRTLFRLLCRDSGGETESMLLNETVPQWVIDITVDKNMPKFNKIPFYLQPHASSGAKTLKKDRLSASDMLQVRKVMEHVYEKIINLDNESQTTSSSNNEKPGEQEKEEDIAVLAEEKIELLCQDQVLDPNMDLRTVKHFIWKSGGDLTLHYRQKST
USP12/UAF1/WDR20, sequence (Q8TBZ3 whole entry partner): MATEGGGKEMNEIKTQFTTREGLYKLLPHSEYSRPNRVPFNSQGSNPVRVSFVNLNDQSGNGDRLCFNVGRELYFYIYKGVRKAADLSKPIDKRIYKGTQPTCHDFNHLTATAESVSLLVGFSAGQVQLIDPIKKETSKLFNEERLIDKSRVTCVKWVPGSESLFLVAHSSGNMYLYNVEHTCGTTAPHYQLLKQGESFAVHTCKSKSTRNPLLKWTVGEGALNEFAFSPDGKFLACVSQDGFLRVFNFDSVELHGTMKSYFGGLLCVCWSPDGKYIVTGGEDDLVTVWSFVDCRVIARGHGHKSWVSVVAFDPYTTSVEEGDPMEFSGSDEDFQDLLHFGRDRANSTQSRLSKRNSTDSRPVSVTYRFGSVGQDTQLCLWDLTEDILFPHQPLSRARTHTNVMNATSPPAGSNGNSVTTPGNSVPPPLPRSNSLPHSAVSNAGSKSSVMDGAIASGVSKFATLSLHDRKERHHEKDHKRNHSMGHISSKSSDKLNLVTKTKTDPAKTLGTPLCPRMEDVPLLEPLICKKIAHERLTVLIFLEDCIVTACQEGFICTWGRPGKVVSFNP

`CC(C)(C)NS(=O)(=O)c1ccc(NC(=O)[C@H](Cc2ccccc2)NC(=O)c2ccc(F)cc2)cc1` [compound 39, CMPD-39] showed a remaining activity at 1 µM (USP12/UAF1/WDR20) of 114%, a remaining activity at 10 µM (USP12/UAF1/WDR20) of 106% and a remaining activity at 100 µM (USP12/UAF1/WDR20) of 104%. It also gave a remaining activity at 1 µM (USP9x) of 104%, a remaining activity at 10 µM (USP9x) of 108% and a remaining activity at 100 µM (USP9x) of 98.3%. The remaining activity at 1 µM (BAP1) was 104%, the remaining activity at 10 µM (BAP1) was 89% and the remaining activity at 100 µM (BAP1) was 96.5%. It also gave a remaining activity at 1 µM (USP25) of 103%, a remaining activity at 10 µM (USP25) of 94.5% and a remaining activity at 100 µM (USP25) of 103%.
